Assays:
[1] = tested on: Human immunodeficiency virus 1; assay: Antiviral activity against wild type HIV-1 NLRepRlucP373S infected in human MT2 cells assessed as inhibition of viral growth measured after 4 to 5 days by Dual luciferase reporter assay; type: functional, organism-based; settings: Human immunodeficiency virus 1, NLRepRlucP373S
[2] = tested on: Human immunodeficiency virus 1; assay: Antiviral activity against wild type HIV-1 NLRepRlucP373S infected in human MT2 cells assessed as inhibition of viral growth measured after 4 to 5 days in presence of 10% FBS and 40% human serum supplemented with 27 mg/mL of human serum albumin by Dual luciferase reporter assay; type: functional, organism-based; settings: Human immunodeficiency virus 1, NLRepRlucP373S
[3] = tested on: Human immunodeficiency virus 1; assay: Antiviral activity against wild type HIV-1 NLRepRlucP373S harboring T332S/V362I/prR41G mutant infected in human MT2 cells assessed as inhibition of viral growth measured after 4 to 5 days by Dual luciferase reporter assay; type: functional, organism-based; settings: Human immunodeficiency virus 1, NLRepRlucP373S
[4] = Fold resistance, ratio of EC50 for antiviral activity against wild type HIV-1 NLRepRlucP373S infected in human MT2 cells assessed as inhibition of viral growth in presence of 10% FBS and 40% human serum supplemented with 27mg/mL of human serum albumin to EC50 for antiviral activity against wild type HIV-1 NLRepRlucP373S infected in human MT2 cells assessed as inhibition of viral growth; type: functional, Human immunodeficiency virus 1
[5] = Cytotoxicity against human MT2 cells assessed as reduction in cell viability; type: toxicity, cell-based
[6] = tested on: Human immunodeficiency virus 1; assay: Antiviral activity against wild type HIV-1 NLRepRlucP373S harboring deltaV370 mutant infected in human MT2 cells assessed as inhibition of viral growth measured after 4 to 5 days by Dual luciferase reporter assay; type: functional, organism-based; settings: Human immunodeficiency virus 1, NLRepRlucP373S
[7] = tested on: Human immunodeficiency virus 1; assay: Antiviral activity against wild type HIV-1 NLRepRlucP373S harboring V362I/V370A mutant infected in human MT2 cells assessed as inhibition of viral growth measured after 4 to 5 days by Dual luciferase reporter assay; type: functional, organism-based; settings: Human immunodeficiency virus 1, NLRepRlucP373S

Compound	EC50 [1] [nM]	EC50 [2] [nM]	EC50 [3] [nM]	fold change (FC) [4]	CC50 [5] [nM]	EC50 [6] [nM]	EC50 [7] [nM]
C=C(C)[C@@H]1CC[C@]2(NCCN3CCC(C)(O)CC3)CC[C@]3(C)[C@H](CC[C@@H]4[C@@]5(C)CC=C(C6=CC[C@](CF)(C(=O)O)CC6)C(C)(C)[C@@H]5CC[C@]43C)[C@@H]12	1.2	19	5.6	16	14000	–	–
C=C(C)[C@@H]1CC[C@]2(NCC[C@]3(O)CC[C@H](S(C)(=O)=O)CC3)CC[C@]3(C)[C@H](CC[C@@H]4[C@@]5(C)CC=C(C6=CC[C@](CF)(C(=O)O)CC6)C(C)(C)[C@@H]5CC[C@]43C)[C@@H]12	1.5	5.9	4.6	4.1	16000	–	–
C=C(C)[C@@H]1CC[C@]2(NCCC3(O)CCN(C(C)=O)CC3)CC[C@]3(C)[C@H](CC[C@@H]4[C@@]5(C)CC=C(C6=CC[C@](CF)(C(=O)O)CC6)C(C)(C)[C@@H]5CC[C@]43C)[C@@H]12	1.7	24	6.7	14	14000	–	–
C=C(C)[C@@H]1CC[C@]2(NCCC3(O)COC3)CC[C@]3(C)[C@H](CC[C@@H]4[C@@]5(C)CC=C(C6=CC[C@@](CF)(C(=O)O)CC6)C(C)(C)[C@@H]5CC[C@]43C)[C@@H]12	1.9	27	12	14	13000	–	–
C=C(C)[C@@H]1CC[C@]2(NCCC(C)(C)O)CC[C@]3(C)[C@H](CC[C@@H]4[C@@]5(C)CC=C(C6=CC[C@](CF)(C(=O)O)CC6)C(C)(C)[C@@H]5CC[C@]43C)[C@@H]12	1.9	26	8.3	14	8300	–	–
C=C(C)[C@@H]1CC[C@]2(NCC[C@]3(O)CC[C@](C)(O)CC3)CC[C@]3(C)[C@H](CC[C@@H]4[C@@]5(C)CC=C(C6=CC[C@@](CF)(C(=O)O)CC6)C(C)(C)[C@@H]5CC[C@]43C)[C@@H]12	3	14	9.2	4.6	11000	–	–
C=C(C)[C@@H]1CC[C@]2(NCC[C@]3(O)CC[C@@H](S(C)(=O)=O)CC3)CC[C@]3(C)[C@H](CC[C@@H]4[C@@]5(C)CC=C(C6=CC[C@@](CF)(C(=O)O)CC6)C(C)(C)[C@@H]5CC[C@]43C)[C@@H]12	2.3	30	6.5	13	17000	–	–
C=C(C)[C@@H]1CC[C@]2(NCC(C)(C)O)CC[C@]3(C)[C@H](CC[C@@H]4[C@@]5(C)CC=C(C6=CC[C@](CF)(C(=O)O)CC6)C(C)(C)[C@@H]5CC[C@]43C)[C@@H]12	15	147	50	9.7	8700	–	–
C=C(C)[C@@H]1CC[C@]2(NCCC3(O)CCS(=O)(=O)CC3)CC[C@]3(C)[C@H](CC[C@@H]4[C@@]5(C)CC=C(C6=CC[C@](CF)(C(=O)O)CC6)C(C)(C)[C@@H]5CC[C@]43C)[C@@H]12	2.3	19	7.7	83	14000	–	–
C=C(C)[C@@H]1CC[C@]2(NCCN3CCOCC3)CC[C@]3(C)[C@H](CC[C@@H]4[C@@]5(C)CC=C(C6=CC[C@](CF)(C(=O)O)CC6)C(C)(C)[C@@H]5CC[C@]43C)[C@@H]12	4.5	53	18	12	7700	–	–
C=C(C)[C@@H]1CC[C@]2(NCCN3CCS(=O)(=O)CC3)CC[C@]3(C)[C@H](CC[C@@H]4[C@@]5(C)CC=C(C6=CCC(CF)(C(=O)O)CC6)C(C)(C)[C@@H]5CC[C@]43C)[C@@H]12 (single isomer, unassigned)	–	–	–	3.3	–	–	–
C=C(C)[C@@H]1CC[C@]2(NCCN3CCS(=O)(=O)CC3)CC[C@]3(C)[C@H](CC[C@@H]4[C@@]5(C)CC=C(c6ccc(C(=O)O)cc6)C(C)(C)[C@@H]5CC[C@]43C)[C@@H]12 [BMS-955176]	–	–	700	2	13000	6	3
